Laboratory results: US20090318396A1, “CORTICOSTEROID LINKED BETA-AGONIST COMPOUNDS FOR USE IN THERAPY” (priority 2008, published 2009)

Legend:
[1] = Stability of steroid C-21 esters, carbonates and carbamates in rat lung homogenate; conditions: for Mean [Parent] (nM) at 2 hrs, 37° C.: parent compound; for Mean % compound remaining at 2 hrs, 37° C.: 900 nM, n=3
Protocol: Lungs from Fischer 344 rats were obtained fresh by overnight delivery at 4° C. from BioReclamation Inc. (Hicksville, N.Y.). Lungs were weighed and homogenized in a 1:3 w/v ratio with sterile phosphate buffered saline (PBS, 10 mM, pH 7.4) in glass vials on ice. After centrifugation at 3,000×g for 10 min at 4° C. the supernatant was decanted into sterile conical tubes and placed on ice. The total protein content of the supernatant was determined by the bicinchoninic acid (BCA) method (Pierce Biotechnology, Rockford, Ill.), using bovine serum albumin (BSA) as the standard. Lung homogenates were prepared to a final concentration of 1 mg total protein/mL in 10 mM PBS, pH 7.4.
Heat-inactivation was achieved by incubation at 80° C. for 30 min, after which the homogenate was allowed to cool to room temperature, stored overnight at 4° C. The homogenate was used for the assay and standard curve preparations. Before use, each homogenate preparation was equilibrated for 15 min in a 37° C. water bath. […] DMSO (2.7 uL) added to 3 mL of temperature-equilibrated homogenate served as a control. Aliquots (100 uL) of homogenate+compound were added to 400 μL quenching solution consisting of 100% HPLC-grade acetonitrile+500 ng/mL glyburide for the zero time point (n=3 for each time point).
The glyburide served as an internal LC/MS/MS standard. The remainder of each drug+homogenate solution was aliquoted into a 96-well tissue culture plates. After an additional 30 min and 120 min incubation at 37° C., 100 μL aliquots were added to 400 μL quenching solution. Denatured proteins in the quenching solution were separated by centrifugation at 3000×g for 2 min at 4° C., and 160 μL of the supernatants were transferred to new 96-well plate for analysis by LC/MS/MS. Collection plates were covered with plastic film and were kept on ice. For storage, covered plates were and kept stored at −80° C. until further use.
An aliquot of 50 μL of each sample was diluted with 50 μL of water containing internal standard at 4° C. The diluted samples were then centrifuged for 20 minutes at 3000 rpm at 4° C. An aliquot of 20 μL of the solution was injected into the TSQ Ultra Quantum.
LC/MS/MS system. The compounds were separated by HPLC using a HyPurity C18 HPLC column (30×2.1 mm, 5μ) from ThermoHypersil. A Multiplex LX-2 HPLC system (Cohesive Technologies, Franklin, Mass.) with two identical Agilent 1100 series binary pumps (P/N G1312A) were used for elution and separation. Samples were maintained at 4° C. in an HTS Pal autosampler (LEAP Technologies, Carrboro, N.C.) in order to reduce any potential spontaneous hydrolysis of the compounds before injection onto the HPLC. The analytes were eluted using the following mobile phases; Mobile phase A contained 1% acetonitrile in 10 mM ammonium formate aqueous solution with 1% formic acid. Mobile phase B contained 80% acetonitrile in 10 mM ammonium formate with 1% formic acid. The HPLC elution program used to elute the analytes was as follows:
The samples were further analyzed by tandem mass spectrometry using a TSQ Quantum Ultra triple quadrupole mass spectrometer (Thermo Finnigan, San Jose, Calif.) using a selective reaction monitoring (SRM) scan type. The mass spectrometry parameters used were as follows:
Nine-point standard curves for each test compound were prepared and analyzed in heat-inactivated lung homogenate. […] The data expressed in Table 2 represent the mean (n=3) percent remaining compound in both types of homogenate at 2 hours, 37° C.

[2] = Drug levels in plasma, BALF and lung after IT administration in the rat; conditions: IT
Protocol: Compounds of Examples 52 and 83 were formulated for intratracheal (IT) dosing in 10% EtOH, 90% Sterile Water, and dosed in male Sprague-Dawley rats at 3 mg/kg (Example 52) and 1 mg/kg (Example 83). Each dosing group consisted of 3 male, naïve purebred Sprague-Dawley rats. At dosing, the animals weighed ˜0.30 kg. The animals were fasted overnight prior to dose administration and up to 2 hr after dosing. The compounds were administered IT using a Penn Century Microsprayer (Model 1A-1B).
Blood samples were collected at 0.5, 2, and 4 hours post-dose. Each blood sample (0.5-0.6 mL per sample) was collected via the orbital sinus (following anesthesia for BAL procedure) into tubes containing EDTA anti-coagulant into containers surrounded by dry ice at 0.5, 2 and 4 hr (mean, n=6). Blood samples were stored at −20±5° C. until shipped for analysis.
The animals were anesthetized with an intramuscular (IM) injection of a ketamine/xylazine/acepromazine (80/10/2 mg/kg) cocktail at a dose volume of 1.1 mL/kg. A cannula (modified Bard® infant feeding tube) was inserted into the trachea. Warmed sterile saline was injected into the lungs. The lungs were gently massaged by palpation of the chest for approximately 45 seconds. The fluid (BALF) was recovered and placed on ice. The procedure was repeated two more times, and all three BALF samples pooled. The fluid was centrifuged under refrigerated conditions at 350 g for 10 minutes. The supernatant and cell pellet were collected and stored at approximately −70° C. until shipped for analysis.
Immediately following each BAL procedure, the lungs from each animal were removed, blotted dry, weighed, and stored frozen at −70° C. until shipped for analysis.
An LC/MS/MS method was used to measure the concentration of compound in plasma.
Add 3×w/v of 1×PBS buffer (90:10-PBS:ACN) to each lung tissue. Homogenize the sample w/Polytron (PT1200) and take 50 uL of supernatant and inject to LC/MSMS.
An aliquot of 50 μL of each plasma sample was treated with 100 mL of acetonitrile (ACN) containing internal standard. After the protein precipitation, an aliquot of 100 μL of the supernatant was transferred to a clean 96-well plate and mixed with 100 μL of water. An aliquot of 30 μL of the above solution was injected to the TSQ Ultra Quantum LC/MS/MS system.
A HyPurity C18 HPLC column (30×2.1 mm, 5μ) from ThermoHypersil (Part #: 22105-032130) was used. Mobile phase A contained 1% acetonitrile in 10 mM ammonium formate aqueous solution with 1% formic acid. Mobile phase B contained 80% acetonitrile in 10 mM ammonium formate with 1% formic acid. An Agilent 1100 series binary pump (P/N G1312A Bin Pump) was used for elution and separation. HTS Pal autosampler from LEAP Technologies, Carrboro, N.C. was used.
TSQ Quantum Ultra triple quadrupole mass spectrometer from Thermo Finnigan, San Jose, Calif. was used in selective reaction monitoring (SRM) operation mode, Tune file:

[3] = Inactive (heat-inactivated) rat lung homogenate

| SMILES | Mean [Parent] (nM) at 2 hrs, 37° C. ([1]; Active homogenate) | Mean % compound remaining at 2 hrs, 37° C. ([1]; Active rat lung homogenate) | Mean % compound remaining at 2 hrs, 37° C. [1, 3] | Mean [Parent] (nM) at 2 hrs, 37° C. ([1]; Inactive homogenate) | Metabolism in the lung following IT administration [2] |
| --- | --- | --- | --- | --- | --- |
| CC(C)[C@@H](C(=O)OCC(=O)[C@@]12O[C@H](C3CCCCC3)O[C@@H]1C[C@H]1[C@@H]3CCC4=CC(=O)C=C[C@]4(C)[C@H]3[C@@H](O)C[C@@]12C)N(C)C [Example 79, N,N-dimethylvaline [[11β,16α]-[16,17-((R)-cyclohexylmethylene)bis(oxy)]-11-hydroxypregna-1,4-diene-3,20-dion-21-yl]ester] | 149 nM | 85% | 61% | 88 nM |  |
| CN1CCN(C(=O)OCC(=O)[C@@]23O[C@H](C4CCCCC4)O[C@@H]2C[C@H]2[C@@H]4CCC5=CC(=O)C=C[C@]5(C)[C@H]4[C@@H](O)C[C@@]23C)CC1 [Example 41, 4-Methylpiperazinecarboxylic acid [[11β,16α]-[[((R)-cyclohexylmethylene)bis(oxy)]-11-hydroxypregna-1,4-diene-3,20-dion-21-yl]]ester] | 170 nM | 68% | 78% | 172 nM |  |
| C[C@]12C=CC(=O)C=C1CC[C@@H]1[C@@H]2[C@@H](O)C[C@@]2(C)[C@H]1C[C@H]1O[C@@H](C3CCCCC3)O[C@]12C(=O)COC(=O)/C=C/c1cccnc1 [Example 33, 3-(Pyridin-3-yl)acrylic acid [[11β,16a]-[[((R)-cyclohexylmethylene)bis(oxy)]-11-hydroxypregna-1,4-diene-3,20-dion-21-yl]]ester] | 4 nM | 3% | 78% | 124 nM |  |
| C[C@]12C=CC(=O)C=C1CC[C@@H]1[C@@H]2[C@@H](O)C[C@@]2(C)[C@H]1C[C@H]1O[C@@H](C3CCCCC3)O[C@]12C(=O)COC(=O)c1cccnc1 [Example 29, Nicotinic acid [[11β,16α]-[[((R)-cyclohexylmethylene)bis(oxy)]-11-hydroxypregna-1,4-diene-3,20-dion-21-yl]]ester] | 2 nM | 1% | 72% | 130 nM |  |
| CCN(CC)CC(=O)OCC(=O)[C@@]12O[C@H](C3CCCCC3)O[C@@H]1C[C@H]1[C@@H]3CCC4=CC(=O)C=C[C@]4(C)[C@H]3[C@@H](O)C[C@@]12C [Example 32, 4-Diethylaminoacetic acid [[11β,16α]-[[((R)-cyclohexylmethylene)bis(oxy)]-11-hydroxypregna-1,4-diene-3,20-dion-21-yl]]ester] | 1 nM | 1% | 61% | 119 nM |  |
| C[C@]12C=CC(=O)C=C1CC[C@@H]1[C@@H]2[C@@H](O)C[C@@]2(C)[C@H]1C[C@H]1O[C@@H](C3CCCCC3)O[C@]12C(=O)COC(=O)Cc1cccnc1 [Example 76, 3-Pyridineacetic acid [[11β,16α]-[16,17-((R)-cyclohexylmethylene)bis(oxy)]-11-hydroxypregna-1,4-diene-3,20-dion-21-yl]ester] | 4 nM | 2% | 83% | 142 nM |  |
| CC[N+](CC)(CC(=O)OCC(=O)[C@@]12O[C@H](C3CCCCC3)O[C@@H]1C[C@H]1[C@@H]3CCC4=CC(=O)C=C[C@]4(C)[C@H]3[C@@H](O)C[C@@]12C)Cc1cc([C@@H](O)CNCCCCCCOCCCCc2ccccc2)ccc1OP(=O)(O)O.[Cl-] [Example 83, [5-[1-(R)-hydroxy-2-[6-(4-phenylbutoxy)hexylamino]ethyl]-2-phosphonooxybenzyl]-(diethyl)-[[11β,16α]-[16,17-((R-cyclohexylmethylene)bis(oxy)]-11-hydroxypregna-1,4-diene-3,20-dion-21-oxy]-carbonylmethyl]ammonium chloride] |  |  |  |  | metabolized to Salmeterol and Desisobutyryl Ciclesonide in the lung |
| CN(C)CCN(C)C(=O)OCC(=O)[C@@]12O[C@H](C3CCCCC3)O[C@@H]1C[C@H]1[C@@H]3CCC4=CC(=O)C=C[C@]4(C)[C@H]3[C@@H](O)C[C@@]12C [Example 40, 2-Dimethylaminoethyl(methyl)carbamic acid [[11β,16α]-[[((R) -cyclohexylmethylene)bis(oxy)]-11-hydroxypregna-1,4-diene-3,20-dion-21-yl]]ester] | 222 nM | 83% | 78% | 167 nM |  |
| CN(C)CC(=O)OCC(=O)[C@@]12O[C@H](C3CCCCC3)O[C@@H]1C[C@H]1[C@@H]3CCC4=CC(=O)C=C[C@]4(C)[C@H]3[C@@H](O)C[C@@]12C [Example 75, N,N-Dimethylglycine [[11β,16α]-[16,17-((R)-cyclohexylmethlylene)bis(oxy)]-11-hydroxypregna-1,4-diene-3,20-dion-21-yl]ester] | 1 nM | 1% | 55% | 101 nM |  |
| CC(C)[C@@H](NC(=O)c1cccnc1)C(=O)OCC(=O)[C@@]12O[C@H](C3CCCCC3)O[C@@H]1C[C@H]1[C@@H]3CCC4=CC(=O)C=C[C@]4(C)[C@H]3[C@@H](O)C[C@@]12C [Example 51, N-(Pyridin-3-carbonyl)valine [[11β,16α]-[16,17-((R)-cyclohexylmethylene)bis(oxy)]-11-hydroxypregna-1,4-diene-3,20-dion-21-yl]ester] | 176 nM | 86% | 85% | 169 nM |  |
| CCN(CC)Cc1cccc(C(=O)OCC(=O)[C@@]23O[C@H](C4CCCCC4)O[C@@H]2C[C@H]2[C@@H]4CCC5=CC(=O)C=C[C@]5(C)[C@H]4[C@@H](O)C[C@@]23C)c1 [Example 31, 3-Diethylaminomethylbenzoic acid [[11β,16α]-[[((R)-cyclohexylmethylene)bis(oxy)]-11-hydroxypregna-1,4-diene-3,20-dion-21-yl]]ester] | 127 nM | 68% | 68% | 127 nM |  |
| CC(CN(C)C)OC(=O)OCC(=O)[C@@]12O[C@H](C3CCCCC3)O[C@@H]1C[C@H]1[C@@H]3CCC4=CC(=O)C=C[C@]4(C)[C@H]3[C@@H](O)C[C@@]12C (stereo partly shown) [Example 28] | 120 nM | 45% | 64% | 147 nM |  |
| CN1CCC[C@H]1C(=O)OCC(=O)[C@@]12O[C@H](C3CCCCC3)O[C@@H]1C[C@H]1[C@@H]3CCC4=CC(=O)C=C[C@]4(C)[C@H]3[C@@H](O)C[C@@]12C [Example 38, (S) 1-Methylpyrrolidinecarboxylic acid [[11β,16α]-[[((R)-cyclohexylmethylene)bis(oxy)]-11-hydroxypregna-1,4-diene-3,20-dion-21-yl]]ester] | 1 nM | 1% | 40% | 71 nM |  |
| C[C@]12C=CC(=O)C=C1CC[C@@H]1[C@@H]2[C@@H](O)C[C@@]2(C)[C@H]1C[C@H]1O[C@@H](C3CCCCC3)O[C@]12C(=O)COC(=O)CCc1cccnc1 [Example 34, 3-(Pyridin-3-yl)propionic acid [[11β,16α]-[[((R)-cyclohexylmethylene)bis(oxy)]-11-hydroxypregna-1,4-diene-3,20-dion-21-yl]]ester] | 1 nM | 0% | 73% | 159 nM |  |
| CN(C)CCNC(=O)OCC(=O)[C@@]12O[C@H](C3CCCCC3)O[C@@H]1C[C@H]1[C@@H]3CCC4=CC(=O)C=C[C@]4(C)[C@H]3[C@@H](O)C[C@@]12C [Example 39, 2-Dimethylaminoethylcarbamic acid [[11β,16α]-[[((R)-cyclohexylmethylene)bis(oxy)]-11-hydroxypregna-1,4-diene-3,20-dion-21-yl]]ester] | 186 nM | 92% | 78% | 162 nM |  |
| CC(C)[C@@H](N)C(=O)OCC(=O)[C@@]12O[C@H](C3CCCCC3)O[C@@H]1C[C@H]1[C@@H]3CCC4=CC(=O)C=C[C@]4(C)[C@H]3[C@@H](O)C[C@@]12C [Example 50, Valine [[11β,16α]-[16,17-((R)-cyclohexylmethylene)bis(oxy)]-11-hydroxypregna-1,4-diene-3,20-dion-21-yl]ester] | 219 nM | 45% | 25% | 50 nM |  |
